Experimental data reported in patent US20240199555A1, “APPLICATIONS OF BIASED LIGANDS OF THE SEROTONIN 5-HT7 RECEPTOR FOR THE TREATMENT OF PAIN, MULTIPLE SCLEROSIS AND THE CONTROL OF THERMOREGULATION” (Centre National de la Recherche Scientifique, priority 2021, published 2024).

What was measured:
human 5-HT1A receptor = human 5-HT1A receptor (Homo sapiens (Human), UniProt P08908); experiment: Radioligand binding competition, 5-HT1A; settings: selectivity panel
mice [1] = experiment: Acetic acid-induced writhing test; type: in vivo
Protocol: (§1) FIG. 9: Analgesic effect of Serodolin in the acetic acid-induced writhing test. In this test, nociception was induced by an intraperitoneally injection (ip) of 0.1 ml/10 g acid acetic solution (10 ml/kg) in peripheral origin. Serodolin at increasing dosage was administrated by oral (po), intravenous (iv) or subcutaneous (sc) route before acid acetic injection (upper panel). Positive control animals were pretreated morphine (3 mg/kg, sc) 10 minutes before acetic acid. Five minutes after i.p. injection of acetic acid the number of writhing was recorded for 10 minutes. Data mean±SEM of values obtained from a representative experiment (n=10 animals/group). ****p<0.0001 ***p<0.001 **p<0.01 *p<0.05 as compared with the control group (Vh).
as §1, with “16:” for “9:”, “MOA51” for “Serodolin”, “i.p.injection” for “i.p. injection”, “animals/group).” for “animals/group). ****p<0.0001 ***p<0.001”, “**p<0.01” for “**p<0.01 *p<0.05”
Writhing tests: Mice (25-35 g). Groups of mice (n=10) received by oral, subcutaneous or intravenous route Serodolin at different doses (0.1-10 mg/kg) one hour before intraperitoneally injection of 1% acetic acid in a volume of 10 ml/kg. Control group received vehicle (10 ml/kg, solution of 20% DMSO and 5% tween 80). The test was carried out 5 minutes later after acid acetic injection. The characteristic writhing responses have been observed individually and counted for 10 minutes.
Analgesic activity was first evaluated using the acetic acid abdominal constriction test (writhing test), a chemical model of visceral pain. We evaluated the dose-response effect of Serodolin following single oral, intravenous and subcutaneous administration of the compound one hour before injection of acetic acid.
Analgesic activity was evaluated using the acetic acid abdominal constriction test (writhing test), a chemical model of visceral pain. We evaluated the dose-response effect of MOA51 following single oral, intravenous and subcutaneous administration of the compound one hour before injection of acetic acid. MOA51 administered by the oral route induced statistically significant dose-dependent decreases in the number of writhings at and above the dose of 1 mg/kg. By the intravenous route, MOA51 induced dose-dependent decreases in the number of writhings at and above the dose of 0.1 mg/kg.

mice [2] = experiment: Tail immersion test (50° C.); type: in vivo
Protocol: (A) Experimental protocol summary used. (B) Mice were subcutaneously injected with two different doses of the 5-HT7 receptor agonist Serodolin, 1 mg/kg or 5 mg/kg and 10 min later their tail extremity was immersed in water heated to 50 degrees. […] The effect of injections (Serodolin or E55888) was evaluated at TO, 30 min and 60 min corresponding to 10, 40 and 70 min after compound injections. […] Their tail extremity was immersed in water heated to 50 degrees at TO (E) or 30 min later (F) corresponding to 10 and 40 min after agonist injections. […] Statistical analysis was done using Tukey's multiple comparison test.
Tail immersion test. Nociception was assessed with the tail immersion test, 10 min and 40 min after E55888 (5 mg/kg) or Serodolin (5 mg/kg) tail subcutaneous injections, in the water heated to 50° C. Vehicle (20% DMSO, 5% Tween 80 diluted in PBS solution) was used as a control group. These different groups were intraperitoneally injected (+) or not (−) with the 5-HT7R antagonist SB269960 (5 mg/kg) 10 min before the ligand injection. The tail withdrawal latency (s) was measured for each animal.

Chain of human 5-HT1A receptor (P08908 whole entry): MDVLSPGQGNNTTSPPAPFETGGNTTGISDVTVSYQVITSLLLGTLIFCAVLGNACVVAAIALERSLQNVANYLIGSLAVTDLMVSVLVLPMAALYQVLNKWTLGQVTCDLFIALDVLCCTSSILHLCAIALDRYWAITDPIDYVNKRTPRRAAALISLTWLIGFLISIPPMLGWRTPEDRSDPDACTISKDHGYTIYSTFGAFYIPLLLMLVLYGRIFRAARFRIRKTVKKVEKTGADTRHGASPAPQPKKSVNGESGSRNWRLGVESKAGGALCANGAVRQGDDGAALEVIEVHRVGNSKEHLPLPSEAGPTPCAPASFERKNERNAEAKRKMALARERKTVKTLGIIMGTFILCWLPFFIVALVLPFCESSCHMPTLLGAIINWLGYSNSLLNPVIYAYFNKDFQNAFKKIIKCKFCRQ

O=c1[nH]c2ccccc2n1CN1CCN(c2ccc(F)cc2)CC1 [Serodolin]
IC50 (human 5-HT1A receptor; read-out: RLB 5-HT1A IC50): 203 nM
Ki (human 5-HT1A receptor; read-out: RLB 5-HT1A Ki): 102 nM
inhibition of the writhing assay response (mice [1]; at the highest dosage): up to 87%
dose giving significant decrease in number of writhings, subcutaneous route (mice [1]; s.c., one hour before acetic acid): 0.1 mg/kg
duration of effect (mice [2]; 5 mg/kg): > 70 min
tail-immersion latencies (mice [2]; 1 and 5 mg/kg, s.c.): significant dose-dependent increase in the tail-immersion latencies
anti-nociceptive effect in 5-HT7R KO mice (mice [2]; 5-HT7R KO mice, subcutaneous): did not exert any anti-nociceptive effect
onset of effect post administration (mice [2]; s.c.): ≤ 10 min
